These are literature values, as cited in PubChem BioAssay AID1259409 (Chemical Carcinogenesis Research Information System (CCRIS), 2018).

SMILES strings stand for the structures.

The test system of the series is rodent chemically induced tumor inhibition, incidence and multiplicity. Put plainly: CCRIS tumor inhibitor studies. The conditions noted are these: Route [Inhibitor]: ORAL, Promoter: NONE USED.

In the case of `CC1=C(/C=C/C(C)=C/C=C/C(C)=C/C(=O)Nc2ccc(O)cc2)C(C)(C)CCC1`, the “tumour outcome (control, treated, inhibition, significance)” value is, setting by setting: (Carcinogen: N-NITROSOBIS(2-OXYPROPYL)AMINE, 60599-38-4, Dose [Inhibitor]: 0.05, 0.1 OR 0.2 MILLIMOLAR/KG DIET FOR 32 WK STARTING 1 WK AFTER THE CARCINOGEN DOSE (STUDY DURATION: 33 WK), Species: HAMSTER, Strain/Sex: SYRIAN/MALE, Target Tissue: Type of Lesion: LUNG: ADENOMA, Dose [Carcinogen]: 40 MG/KG ONCE) 1/12 (8%), 2/21 (10%), -25%, not significant; (Carcinogen: N-NITROSOBIS(2-OXYPROPYL)AMINE, 60599-38-4, Dose [Inhibitor]: 0.05, 0.1 OR 0.2 MILLIMOLAR/KG DIET FOR 32 WK STARTING 1 WK AFTER THE CARCINOGEN DOSE (STUDY DURATION: 33 WK), Species: HAMSTER, Strain/Sex: SYRIAN/MALE, Target Tissue: Type of Lesion: PANCREAS: ADENOMA, Dose [Carcinogen]: 40 MG/KG ONCE) 12/12 (100%), 21/21 (100%), 0%, not significant; (Carcinogen: N-NITROSOBIS(2-OXYPROPYL)AMINE, 60599-38-4, Dose [Inhibitor]: 0.05, 0.1 OR 0.2 MILLIMOLAR/KG DIET FOR 32 WK STARTING 1 WK AFTER THE CARCINOGEN DOSE (STUDY DURATION: 33 WK), Species: HAMSTER, Strain/Sex: SYRIAN/MALE, Target Tissue: Type of Lesion: PANCREAS: CARCINOMA, Dose [Carcinogen]: 40 MG/KG ONCE) 6/12 (50%), 13/21 (62%), -24%, not significant; (Carcinogen: NONE USED, Dose [Inhibitor]: 1 MILLIMOLAR IN DIET DAILY FOR 39 WK STARTING AT 2 MO OF AGE THROUGH THE END OF THE STUDY (STUDY DURATION: 39 WK), Species: MOUSE, Strain/Sex: C3H/FEMALE, Target Tissue: Type of Lesion: MAMMARY GLAND: ADENOCARCINOMA) 83/98 (85%), 71/100 (71%), 16%, not significant; (Carcinogen: NONE USED, Dose [Inhibitor]: 1 MILLIMOLAR IN DIET FOR 14 WK STARTING AT 4-6 MO OF AGE THROUGH THE END OF THE STUDY (STUDY DURATION: 14 WK), Species: MOUSE, Strain/Sex: C3H/FEMALE, Target Tissue: Type of Lesion: MAMMARY GLAND: ADENOCARCINOMA) 54/78 (69%), 62/78 (80%), -16%, not significant; (Carcinogen: NONE USED, Dose [Inhibitor]: 1 MILLIMOLAR IN DIET FOR 39 WK STARTING AT 2 MO OF AGE THROUGH THE END OF THE STUDY (STUDY DURATION: 39 WK), Species: MOUSE, Strain/Sex: C3H/FEMALE, Target Tissue: Type of Lesion: MAMMARY GLAND: ADENOCARCINOMA) 83/98 (85%), 71/100 (71%), 16%, not significant. The “tumour outcome (control, treated, inhibition, significance)” value is, setting by setting: (Carcinogen: NONE USED, Dose [Inhibitor]: 1.0 MM/KG IN DIET DAILY FOR 14 WK STARTING AT 4-6 MO OF AGE THROUGH THE END OF THE STUDY (STUDY DURATION: 14 WK), Species: MOUSE, Strain/Sex: C3H/FEMALE, Target Tissue: Type of Lesion: MAMMARY GLAND: ADENOCARCINOMA) 54/78 (69%), 62/78 (80%), -16%, not significant; (Carcinogen: NONE USED, Dose [Inhibitor]: 783 MG/KG DIET DAILY FOR 54 WK (STUDY DURATION: 54 WK), Species: RAT, Strain/Sex: ACI/MALE, Target Tissue: Type of Lesion: ADRENAL GLAND: TUMOR) 15/43 (35%), 18/43 (42%), -20%, not significant; (Carcinogen: NONE USED, Dose [Inhibitor]: 783 MG/KG DIET DAILY FOR 54 WK (STUDY DURATION: 54 WK), Species: RAT, Strain/Sex: ACI/MALE, Target Tissue: Type of Lesion: PANCREAS: ADENOMA) 1/40 (3%), 5/44 (11%), -267%, not significant; (Carcinogen: NONE USED, Dose [Inhibitor]: 783 MG/KG DIET DAILY FOR 54 WK (STUDY DURATION: 54 WK), Species: RAT, Strain/Sex: ACI/MALE, Target Tissue: Type of Lesion: PITUITARY GLAND: ADENOMA OR CARCINOMA) 20/39 (51%), 19/42 (45%), 12%, not significant; (Carcinogen: NONE USED, Dose [Inhibitor]: 783 MG/KG DIET DAILY FOR 54 WK (STUDY DURATION: 54 WK), Species: RAT, Strain/Sex: ACI/MALE, Target Tissue: Type of Lesion: PROSTATE GLAND: ADENOMA OR CARCINOMA) 19/44 (43%), 11/40 (28%), 35%, not significant; (Carcinogen: NONE USED, Dose [Inhibitor]: 783 MG/KG DIET DAILY FOR 54 WK (STUDY DURATION: 54 WK), Species: RAT, Strain/Sex: ACI/MALE, Target Tissue: Type of Lesion: SKIN: TUMORS) 12/45 (27%), 3/45 (7%), 74%, p<0.025. Also, the “tumour outcome (control, treated, inhibition, significance)” value (Carcinogen: NONE USED, Dose [Inhibitor]: 783 MG/KG DIET DAILY FOR 54 WK (STUDY DURATION: 54 WK), Species: RAT, Strain/Sex: ACI/MALE, Target Tissue: Type of Lesion: TESTES: INTERSTITIAL CELL TUMOR) was 21/45 (47%), 24/44 (55%), -17%, not significant.
